Measurements: patent US8476062B2, “Biosensor method and system based on feature vector extraction” (priority 2005, dated 2013)
Several values for one entry are separate records, joined by “and”; a condition that tells them apart may be missing. Equal values may be shown once. Read-outs that look alike come from different tables or passages of the source.

Legend:
[1] = tested on: Clinch River samples (naturally-occurring photosynthetic organisms); test: Toxic agent detection by fluorescence induction, Clinch River samples; assay type: cell-based
Description: (§1) Fluorescence induction data set of normal primary-source drinking water samples as well as samples exposed to four different toxic agents at different concentrations were collected. The control and toxic-agent-exposed fluorescence induction data were taken every 5 minutes after the dark adaptation for 15 minutes. • 20 μM DCMU, • 5 mM/10 mM KCN, • 40 μM/60 μM MPt, and • 225 μM Paraquat. Experiment 1—Toxic Agent Detection
(§2) The objective of the first experiment performed was to evaluate the performance of the inventive methodology in detecting the presence of toxic agents. FIGS. 12-23 show the extracted features (including PSII, amplitude statistics, and wavelet coefficient statistical features) of each specific toxic agent as functions of time. The toxic agents were added into the samples at time 0, therefore, the signals with negative time index correspond to the control data and the signals during the positive time period are the agent-exposed data collected from either the Clinch River samples or the lab-grown Chlamydomonas reinhardtii samples. At each time moment, three samples were collected and feature values calculated. The mean and standard deviation of these three values are used to illustrate the performance curve at that time moment. To examine the change of feature values over time, the signal collected at time 0 as reference was chosen and yield at each time moment calculated (feature at time t−feature at time 0)/feature at time 0. The following notations are used to describe these performance curves: • μc(t), σc(t): the mean and the standard deviation of the feature values derived from the three control samples collected at moment t (with a negative time index) • μe(t), σe(t): the mean and the standard deviation of the feature values derived from the three exposure samples collected at moment t (with a positive time index)
(§3) In order to quantitatively evaluate the effectiveness of each feature in differentiating between the control and the exposure signals of different toxic agents, two metrics are introduced: the Fisher criterion and the average confidence level. The Fisher criterion originates from pattern classification (Duda, et al., 2001) where a linear projection is pursued in order to best separate two classes. In this work, the definition of Fisher criterion is used to quantify different performance curves in differentiating between the control and the exposure signals. In general, the Fisher criterion looks for the feature that maximizes the difference between the mean value of feature derived from the control and the exposed signal while minimizing the variance among them, as formulated below: […]
(§4) Table 1 lists the value of the Fisher criterion to evaluate the effect of using different features for agent detection. In both Table 1 and Table 2 “Clinch” refers to Clinch River samples and “Chlamy” to lab-grown Chlamydomonas reinhardtii samples. It can be seen from Table 1 below that the first-order amplitude statistics (mean) gives the best metric evaluation for most of the toxic agents, while the wavelet analysis, the standard deviation and the skewness in amplitude statistics also contribute to the differentiation between control and exposure signals in some cases.

[2] = tested on: lab-grown Chlamydomonas reinhardtii; test: Toxic agent detection by fluorescence induction, lab-grown Chlamydomonas reinhardtii samples; assay type: cell-based
Description: as §1, §2, §3, §4

For `CN(C)C(=O)Nc1ccc(Cl)c(Cl)c1` [DCMU, Diuron], the “Fisher criterion (control vs exposure signals), Amplitude Statistics Kurtosis” value ([1]; Clinch, 20 μM DCMU) was 71.3140, the “Fisher criterion (control vs exposure signals), Amplitude Statistics Mean” value ([1]; Clinch, 20 μM DCMU) was 356.4241 and the “Fisher criterion (control vs exposure signals), Amplitude Statistics Skewness” value ([1]; Clinch, 20 μM DCMU) was 64.7360. For the same compound, the “Fisher criterion (control vs exposure signals), PSII” value ([1]; Clinch, 20 μM DCMU) was 62.8073, the “Fisher criterion (control vs exposure signals), Wavelet Coefficient Energy” value ([1]; Clinch, 20 μM DCMU) was 93.8024 and the “Fisher criterion (control vs exposure signals), Wavelet Coefficient Mean” value ([1]; Clinch, 20 μM DCMU) was 37.3350. The “Fisher criterion (control vs exposure signals), Amplitude Statistics Kurtosis” value ([2]; Chlamy, 20 μM DCMU) was 242.9, the “Fisher criterion (control vs exposure signals), Amplitude Statistics Mean” value ([2]; Chlamy, 20 μM DCMU) was 2111.9 and the “Fisher criterion (control vs exposure signals), Amplitude Statistics Skewness” value ([2]; Chlamy, 20 μM DCMU) was 835.9. The “Fisher criterion (control vs exposure signals), PSII” value ([2]; Chlamy, 20 μM DCMU) was 63.9, the “Fisher criterion (control vs exposure signals), Wavelet Coefficient Energy” value ([2]; Chlamy, 20 μM DCMU) was 8.2 and the “Fisher criterion (control vs exposure signals), Wavelet Coefficient Mean” value ([2]; Chlamy, 20 μM DCMU) was 5.3.

With `COP(=S)(OC)Oc1ccc([N+](=O)[O-])cc1` [MPt, methyl parathion] the “Fisher criterion (control vs exposure signals), Amplitude Statistics Mean” value [1] was 9.9401 and 5.1574, the “Fisher criterion (control vs exposure signals), Wavelet Coefficient Energy” value [1] was 258.6794 and 159.3636 and the “Fisher criterion (control vs exposure signals), Wavelet Coefficient Mean” value [1] was 148.3582 and 75.2339. For the same compound, the “Fisher criterion (control vs exposure signals), Amplitude Statistics Mean” value [2] was 15.3435 and 20.3104, the “Fisher criterion (control vs exposure signals), PSII” value [2] was 7.8844 and 11.7760 and the “Fisher criterion (control vs exposure signals), Wavelet Coefficient Energy” value [2] was 29.3503 and 29.5307. The “Fisher criterion (control vs exposure signals), Wavelet Coefficient Mean” value [2] was 15.7935 and 22.2547.

For `C[n+]1ccc(-c2cc[n+](C)cc2)cc1` [Paraquat], the “Fisher criterion (control vs exposure signals), Amplitude Statistics Kurtosis” value ([1]; Clinch, 225 μM Paraquat) was 13.0980, the “Fisher criterion (control vs exposure signals), Amplitude Statistics Mean” value ([1]; Clinch, 225 μM Paraquat) was 0.6992 and the “Fisher criterion (control vs exposure signals), Amplitude Statistics Skewness” value ([1]; Clinch, 225 μM Paraquat) was 21.8997. The “Fisher criterion (control vs exposure signals), PSII” value ([1]; Clinch, 225 μM Paraquat) was 40.3550, the “Fisher criterion (control vs exposure signals), Wavelet Coefficient Energy” value ([1]; Clinch, 225 μM Paraquat) was 121.8164 and the “Fisher criterion (control vs exposure signals), Wavelet Coefficient Mean” value ([1]; Clinch, 225 μM Paraquat) was 88.1866. The “Fisher criterion (control vs exposure signals), Amplitude Statistics Kurtosis” value ([2]; Chlamy, 225 μM Paraquat) was 0.5380, the “Fisher criterion (control vs exposure signals), Amplitude Statistics Mean” value ([2]; Chlamy, 225 μM Paraquat) was 9.2416 and the “Fisher criterion (control vs exposure signals), Amplitude Statistics Skewness” value ([2]; Chlamy, 225 μM Paraquat) was 0.1661. For the same compound, the “Fisher criterion (control vs exposure signals), PSII” value ([2]; Chlamy, 225 μM Paraquat) was 33.4259, the “Fisher criterion (control vs exposure signals), Wavelet Coefficient Energy” value ([2]; Chlamy, 225 μM Paraquat) was 15.7150 and the “Fisher criterion (control vs exposure signals), Wavelet Coefficient Mean” value ([2]; Chlamy, 225 μM Paraquat) was 7.4516.
